# From patent publication US20250368645A1, “BETA CARBOLINE ANALOGUES AS SELECTIVE AND BIASED KAPPA OPIOID RECEPTORS AGONISTS FOR TREATING VARIOUS ASSOCIATED PATHOPHYSIOLOGICAL CONDITIONS” (COUNCIL OF SCIENTIFIC AND INDUSTRIAL RESEARCH, priority 2022, published 2025)
# Where two headings read alike, the source gives them in different places.
# How the values were obtained:
# Format in all cases: cell-based
# human KOR [1] = target: T1, human KOR (Homo sapiens, UniProt P41145); assay: GloSensor assay, Gi-mediated cAMP inhibition in HEK-293T cells transfected with human KOR; settings: for G-Protein Bias factor (IC50 -Glosensor/- EC50 - Tango): KOR, GloSensor versus Tango;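 on agonist at KOR (pIC50): value taken from a statement in the text not a table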
# Target sequence in this assay (P41145 whole entry): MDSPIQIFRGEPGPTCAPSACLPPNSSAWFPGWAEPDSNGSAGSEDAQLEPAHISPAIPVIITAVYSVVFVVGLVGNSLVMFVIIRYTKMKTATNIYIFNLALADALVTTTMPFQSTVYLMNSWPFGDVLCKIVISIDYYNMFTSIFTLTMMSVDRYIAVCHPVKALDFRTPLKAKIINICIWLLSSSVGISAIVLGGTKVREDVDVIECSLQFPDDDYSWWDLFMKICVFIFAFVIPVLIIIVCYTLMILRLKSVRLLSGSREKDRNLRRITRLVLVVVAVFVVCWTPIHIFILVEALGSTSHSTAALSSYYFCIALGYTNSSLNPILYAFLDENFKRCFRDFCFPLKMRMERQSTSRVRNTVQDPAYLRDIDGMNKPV
# MOR = MOR (Homo sapiens, UniProt P35372); assay: GloSensor assay at MOR; settings: given as Log IC50 (negative values)
# DOR = DOR (Homo sapiens, UniProt P41143); assay: GloSensor assay at DOR; settings: given as Log IC50 (negative values)
# human KOR [2] = target: T1, human KOR; assay: β-arrestin2 Tango assay in HTLA cells transiently transfected with human KOR; settings: Table 2, KOR; for EC50: read-out: B-arrestin Tango Assay (pEC50) (converted)
# Target sequence in this assay (P41145 whole entry, added parts left off): as the sequence (P41145 whole entry) above
# [3] = Table 2, KOR, read-out: GloSensor Assay (pIC50) (converted)
# [4] = given as Log IC50 (negative values), agonist activity, inhibition of FSK-stimulated cAMP, read-out: GloSensor Assay (Log IC50) KOR (converted)
# [5] = read-out: agonist at KOR (pIC50) (converted)
# Sequence of DOR (P41143 whole entry): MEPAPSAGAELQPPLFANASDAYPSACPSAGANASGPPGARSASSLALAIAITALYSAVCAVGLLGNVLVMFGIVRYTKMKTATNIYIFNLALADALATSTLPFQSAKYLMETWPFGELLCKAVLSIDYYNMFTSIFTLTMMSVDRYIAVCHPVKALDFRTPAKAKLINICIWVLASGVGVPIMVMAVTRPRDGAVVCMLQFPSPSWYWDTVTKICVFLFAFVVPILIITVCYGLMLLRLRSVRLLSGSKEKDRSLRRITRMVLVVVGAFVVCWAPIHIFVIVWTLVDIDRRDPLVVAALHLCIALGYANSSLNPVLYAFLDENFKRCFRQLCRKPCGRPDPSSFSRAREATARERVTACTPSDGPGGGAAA
# Sequence of MOR (P35372 whole entry): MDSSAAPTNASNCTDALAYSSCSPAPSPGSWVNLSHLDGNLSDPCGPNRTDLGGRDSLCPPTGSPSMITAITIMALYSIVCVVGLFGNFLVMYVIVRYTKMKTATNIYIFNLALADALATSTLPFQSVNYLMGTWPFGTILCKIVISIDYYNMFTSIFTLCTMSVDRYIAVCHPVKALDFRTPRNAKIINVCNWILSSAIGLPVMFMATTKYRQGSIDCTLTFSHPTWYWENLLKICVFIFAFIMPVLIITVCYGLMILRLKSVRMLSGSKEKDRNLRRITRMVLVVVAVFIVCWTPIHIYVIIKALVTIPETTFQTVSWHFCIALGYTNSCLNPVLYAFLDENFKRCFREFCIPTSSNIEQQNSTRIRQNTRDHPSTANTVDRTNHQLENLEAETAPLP
Compound,G-Protein Bias factor (IC50 -Glosensor/- EC50 - Tango) (human KOR [1]),IC50 (human KOR [1]; [3]) [µM],IC50 (human KOR [1]; [4]) [µM],IC50 (human KOR [1]; [5]) [µM],IC50 (MOR) [µM],IC50 (DOR) [µM],EC50 (human KOR [2]) [µM],"GloSensor Assay (pIC50) (human KOR [1]; Table 2, KOR)","GloSensor Assay (Log IC50) KOR (human KOR [1]; given as Log IC50 (negative values), agonist activity, inhibition of FSK-stimulated cAMP)",GloSensor Assay (Log IC50) MOR (MOR),GloSensor Assay (Log IC50) DOR (DOR),B-arrestin Tango Assay (pEC50) (human KOR [2])
"Clc1ccc(-c2c3c4[nH]c5ccccc5c4cc[n+]3cn2-c2ccc(Br)cc2)cc1.[Cl-] [8adb, 2-(4-Bromophenyl)-1-(4-chlorophenyl)-2,11-dihydroimidazo[1′,5′:1,2]pyrido[3,4-b]indol-4-ium chloride]",1.44,0.02,0.02,< 0.0316,> 10,> 10,0.55,–,–,–,–,–
"Brc1ccc(-n2c[n+]3ccc4c5ccccc5[nH]c4c3c2-c2ccccc2Br)cc1.[Cl-] [8acb, 1-(2-Bromophenyl)-2-(4-bromophenyl)-2,11-dihydroimidazo[1′,5′:1,2]pyrido[3,4-b]indol-4-ium chloride]",3.6,0.000115,0.00251,< 0.0316,> 10,> 10,0.457,–,–,–,–,–
"Clc1ccc(-n2c[n+]3ccc4c5ccccc5[nH]c4c3c2-c2ccccc2Cl)cc1.[Cl-] [8aec, 1-(2-Chlorophenyl)-2-(4-chlorophenyl)-2,11-dihydroimidazo[1′,5′:1,2]pyrido[3,4-b]indol-4-ium chloride]",1.23,0.00794,0.00794,< 0.0316,0.501,> 10,0.135,–,–,–,–,–
"Clc1ccc(-n2c[n+]3ccc4c5ccccc5[nH]c4c3c2-c2ccc(Br)cc2)cc1.[Cl-] [8abc, 1-(4-Bromophenyl)-2-(4-chlorophenyl)-2,11-dihydromidazo[1′,5′:1,2]pyrido[3,4-b]indol-4-ium chloride]",2.35,0.00112,0.000631,< 0.0316,> 10,> 10,0.251,–,–,–,–,–
"Clc1ccc(-n2c[n+]3ccc4c5ccccc5[nH]c4c3c2-c2ccccc2Br)cc1.[Cl-] [8acc, 1-(2-Bromophenyl)-2-(4-chlorophenyl)-2,11-dihydrolmidazo[1′,5′:1,2]pyrido[3,4-b]indol-4-ium]",2.89,0.000589,0.00158,< 0.0316,2,3.98,0.457,–,–,–,–,–
"2-(4-Fluorophenyl)-1-(4-methoxyphenyl)-2,11-dihydroimidazo[1′,5′:1,2]pyrido[3,4-b]indol-4-ium [8aod]",1.68,–,–,–,–,–,–,7.9,−7.9,>−5,>−5,6.22
"Fc1ccc(-n2c[n+]3ccc4c5ccccc5[nH]c4c3c2-c2ccccc2Cl)cc1.[Cl-] [8aed, 1-(2-Chlorophenyl)-2-(4-fluorophenyl)-2,11-dihydroimidazo[1′,5′:1,2]pyrido[3,4-b]indol-4-ium chloride]",1.06,0.01,0.01,< 0.0316,> 10,> 10,0.115,–,–,–,–,–
"Cc1ccc(-c2c3c4[nH]c5ccccc5c4cc[n+]3cn2-c2ccc(F)cc2)cc1.[Cl-] [8akd, 2-(4-Fluorophenyl)-1-(p-tolyl)-2,11-dihydroimidazo[1′,5′:1,2]pyrido[3,4-b]indol-4-ium chloride]",3.15,0.000641,0.00158,< 0.0316,> 10,> 10,0.916,–,–,–,–,–
"Fc1ccc(-n2c[n+]3ccc4c5ccccc5[nH]c4c3c2-c2ccccc2Br)cc1.[Cl-] [8acd, 1-(2-Bromophenyl)-2-(4-fluorophenyl)-2,11-dihydroimidazo[1′,5′:1,2]pyrido[3,4-b]indol-4-ium chloride]",3,0.00158,0.00158,< 0.0316,> 10,> 10,1.58,–,–,–,–,–
